The source of these data is US7767240B2, “Microbiological control in poultry processing” (priority 2001, dated 2010).

Format in all cases: cell-based
Assay [1] concerns Pseudomonas aeruginosa (ATCC 15442) biofilm. Put plainly: MBEC biofilm eradication test (Calgary biofilm device). As to conditions: one-hour biocide contact time; for MBEC (minimum biofilm eradication concentration): individual determinations. An excerpt:
Table 45 summarizes test results performed at MBEC Biofilm Technologies, Inc., Calgary, Canada on the effectiveness of various biocides on biofilm removal. The test procedure, developed at the University of Calgary, utilizes a device which allows the growth of 96 identical biofilms under carefully controlled conditions. The device consists of a two-part vessel comprised of an upper plate containing 96 pegs that seals against a bottom plate. The bottom plate can consist of either a trough (for biofilm growth) or a standard 96-well plate (for biocide challenge). The biofilms develop on the 96 pegs. The device has been used as a general method for evaluating the efficacy of antibiotics and biocides towards biofilms. See in this connection H. Ceri, et al., “The MBEC Test: A New In Vitro Assay Allowing Rapid Screening for Antibiotic Sensitivity of Biofilm”, Proceedings of the ASM, 1998, 89, 525; Ceri, et al., “Antifungal and Biocide Susceptibility testing of Candida Biofilms using the MBEC Device”, Proceedings of the Interscience Conference on Antimicrobial Agents and Chemotherapy, 1998, 38, 495; and H. Ceri, et al., “The Calgary Biofilm Device: A New Technology for the Rapid Determination of Antibiotic Susceptibility of Bacterial Biofilms”, Journal of Clinical Microbiology, 1999, 37, 1771-1776.
Six biocide systems were evaluated using the above test procedure and test equipment. Five of these systems were oxidizing biocides, viz., chlorine (from NaOCl), halogen (from NaOCl+NaBr), halogen (from BCDMH), bromine (from DBDMH), and chlorine (from trichloroisocyanuric acid), all expressed as bromine as Br2 in mg/L, so that all test results were placed on the same basis. The sixth biocide was glutaraldehyde, a non-oxidizing biocide.
These biocide systems were used to challenge biofilms of Pseudomonas aeruginosa (ATCC 15442). This is a Gram (−) bacterium which is ubiquitous in microbiological slimes found in many water systems. See in this connection J. W. Costerton and H. Anwar, “Pseudomonas aeruginosa: The Microbe and Pathogen”, in Pseudomonas aeruginosa Infections and Treatment, A. L. Baltch and R. P. Smith editors, Marcel Dekker publishers, New York, 1994. In the field of poultry processing, S. Notermans, J. Dormans, and G. C. Mead, Biofouling, 1991, Vol. 5, pages 21-36, report observation of biofilms in poultry slaughter houses by use of scanning electron microscopy.
In Table 45 the MBEC (minimum biofilm eradication concentration) results presented are for the one-hour biocide contact time used in the test. The values given for the halogen containing biocides are expressed in terms of mg/L of bromine as Br2. The data on the glutaraldehyde is in terms of mg/L as active ingredient. […] In fact, only slightly more than one-half as much bromine from DBDMH was required to remove the biofilm as compared to the total halogen, expressed as Br2, that was required from BCDMH.

The test system of assay [2] is Escherichia coli field strain. Briefly: Carcass total bacteria count after 1.5-hour chill tank immersion (Example 1). As to conditions: average of 10 birds; for Mean Bacteria Reduction (carcass): 1.5 h chill tank. An excerpt:
(§1) The effect of these treatments on the residual chill tank water was also investigated. Carcasses were first immersed in a warm bath containing 10^4 E coli per mL of liquid. Carcasses were then immersed in chill tanks containing normal organic fluids (blood, fat, skin, and meat particles) and containing one of the respective microbiocidal compositions under test. Total bacteria count of whole bird (both inside and outside) was used to determine efficacy of various microbiocidal compositions. […] Albemarle Corporation). The trial events and experimental design used were as follows: • a) For all treatments a total of 190 birds were processed in a normal fashion. […] This was best done by grasping the broiler carcass with one hand and the closed top of the bag with the other then rocking with a reciprocal motion in a 18-24 inch arc, assuring that all carcass surfaces (interior and exterior) were rinsed. • h) The rinse solutions were then transferred from each stomacher bag into individual sample bottles, taking care to ensure that the information on the date of collection, time of collection, and treatment group matched that of the sample. Each bottle was sealed with parafilm and stored in a refrigerator. • i) Dilution of the fluids was conducted such that a 25-250 count was present on the MacConkey plate. […] Poultry carcass microbial contamination measurement was achieved by the complete washing of the entire carcass surface (inside and outside) using suitable sterile stripping solution followed by collection and plating of the stripping solution for bacterial enumeration.

In assay [3] the test system is Escherichia coli field strain. Put plainly: Chill water bacteria count (Example 1). The settings on record: bacteria count per mL of treatment water.
Excerpt: as §1

Where [4] appears, read: 50 ppm Cl2 equivalent (Aquatize: 50 ppm sodium chlorite).
Where [5] appears, read: 100 ppm Cl2 equivalent (Aquatize: 100 ppm sodium chlorite).
[6] abbreviates: 150 ppm Cl2 equivalent (Aquatize: 150 ppm sodium chlorite).

Values joined by “and” are separate entries in the source; they are usually repeats but may differ in a detail not shown here. Equal entries are not always repeated.

With `O=CCCCC=O` [Glutaraldehyde, glutaraldehyde], in assay [1], the “MBEC, avg.” value is recorded as 50 mg/L as active ingredient and the “MBEC (minimum biofilm eradication concentration)” value is recorded as 50, 50 mg/L as active ingredient.

Regarding `[Na+].[O-]Cl` [NaOCl], in assay [1], the “MBEC, avg.” value is listed as 3.8 mg/L of bromine as Br2; the “MBEC (minimum biofilm eradication concentration)” value is 5.0 mg/L of bromine as Br2 and 2.5 mg/L of bromine as Br2.

`[Br-].[Na+]` [Sodium bromide, sodium bromide]: the “Mean Bacteria Reduction (carcass)” value in assay [2] (50 ppm Cl2 equivalent (Aquatize: 50 ppm sodium chlorite), control carcass 2.67 × 10^5 total count) is reported as 92; in assay [2] (setting [5]), 6.54 × 10^2; in assay [2] (setting [6]) it was 1.73 × 10^3. Further, the “Mean Bacteria Reduction Count (carcass)” value in assay [2] (setting [4]) is given as 92; in assay [2] (setting [5]), 654; in assay [2] (setting [6]), 1,730. Also, the “Percent Bacteria Reduction From Control (carcass)” value in assay [2] (setting [4]) is reported as 0.034%; in assay [2] (setting [5]), 0.245%; in assay [2] (setting [6]), 0.648%. The “Chill Water Bacteria Count (Mean Bacteria Reduction)” value in assay [3] (50 ppm Cl2 equivalent (Aquatize: 50 ppm sodium chlorite), negative control 5.11 × 10^3) is 4.67 × 10^3 per mL; in assay [3] (setting [5]) it was 3.49 × 10^3 per mL; in assay [3] (setting [6]), 2.23 × 10^3 per mL.

As for `O=c1n(Cl)c(=O)n(Cl)c(=O)n1Cl` [Trichloroisocyanuric acid, trichloroisocyanuric acid], in assay [1], the “MBEC, avg.” value was 2.0 mg/L of bromine as Br2; the “MBEC (minimum biofilm eradication concentration)” value is 2.6 mg/L of bromine as Br2 and 1.3 mg/L of bromine as Br2.
